In patent US8481541B2, “Pyrrolopyrazine kinase inhibitors” (Hoffmann-La Roche Inc., priority 2010, dated 2013):
pIC50: −log10 of the molar value.

How the values were obtained:
[1] = molecular target: T1, h-jak3(810-1124) (JAK3 recombinant human kinase domain) (Homo sapiens, UniProt P52333); test: Determination of IC50 of Janus Kinase (JAK) inhibition, radioactive end-point 33P-ATP kinase assay, JAK3; type: biochemical; conditions: JAK3 kinase domain (810-1124), sf9; no additive; ATP 1.5 uM, peptide 50 uM, 20 minutes, room temperature; read-out: Ic50 h-jak3(810-1124)-sf9-c: no additive
T1 construct: Ic50 h-jak3(810-1124)-; made in house; host or cells: Sf9 insect cells
T1 sequence (P52333 810-1124): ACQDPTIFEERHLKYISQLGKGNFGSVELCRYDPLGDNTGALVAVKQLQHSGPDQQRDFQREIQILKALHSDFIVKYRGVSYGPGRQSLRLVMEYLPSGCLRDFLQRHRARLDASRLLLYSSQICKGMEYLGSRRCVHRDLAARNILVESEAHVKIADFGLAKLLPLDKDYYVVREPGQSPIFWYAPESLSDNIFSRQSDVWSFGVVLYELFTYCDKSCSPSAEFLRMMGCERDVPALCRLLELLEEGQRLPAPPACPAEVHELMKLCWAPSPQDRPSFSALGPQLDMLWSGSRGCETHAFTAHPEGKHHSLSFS
Source text: Determination of IC50 of Janus Kinase (JAK) Inhibition:
Enzymes and peptide substrate used are described below: • JAK1: Recombinant human kinase domain from Invitrogen (Cat # PV4774) • JAK3: Recombinant human kinase domain from Millipore (Cat # 14-629) or prepared. • JAK2: Recombinant human kinase domain from Millipore (Cat # 14-640) Substrate: N-terminally biotinylated 14-mer peptide derived from activation loop of JAK1 with sequence of the peptide substrate: Biotin-[…]
Assay conditions used are described below: • Assay Buffer: JAK Kinase Buffer: 50 mM Hepes [pH 7.2], 10 mM MgCl2, 1 mM DTT, 1 mg/ml BSA. The assay was carried out in this buffer. • Assay Format The kinase activity of all three JAK kinases was measured using a radioactive, end-point assay and with trace amounts of ^33P-ATP. The assays were carried out in 96-well polypropylene plates. Experimental Method:
All concentrations were final in the reaction mixture and all incubations were carried at room temperature. Assay steps are described below: • 1) Compounds were serially diluted in 100% DMSO typically at a 10× starting concentration of 1 mM. Final concentration of DMSO in the reaction was 10%. • 2) Compounds were preincubated with enzyme (0.5 nM JAK3 (commercially available), 0.2 nM JAK3 (prepared), 1 nM JAK2, 5 nM JAK1) for 10 minutes. • 3) Reactions were initiated by the addition of a cocktail of the two substrates (ATP and peptide premixed in the JAK Kinase Buffer). In the JAK2/JAK3 assays, ATP and the peptide were used at concentrations of 1.5 uM and 50 uM, respectively. JAK1 assay was carried out at an ATP concentration of 10 uM and a peptide concentration of 50 uM. • 4) The duration of the assay for JAK2 and JAK3 is 20 minutes. JAK1 assay was carried out for 40 minutes. With all three enzymes, reactions were terminated by the addition of 0.5M EDTA to a final concentration of 100 mM. • 5) 25 ul of terminated reactions were transferred to 150 ul of a 7.5% (v/v) slurry of streptavidin-coated sepharose beads in MgCl2- and CaCl2-free 1× Phosphate Buffered Saline containing 50 mM of EDTA in 96-well, 1.2 um MultiScreen-BV filter plates. • 6) After a 30-minute incubation, the beads were washed under vacuum with the following buffers: • a. 3 to 4 washes with 200 ul of 2M NaCl. • b. 3 to 4 washes with 200 ul of 2M NaCl plus 1% (v/v) phosphoric acid. • c. 1 wash with water. • 7) Washed plates were dried in a 60° C. oven for between 1 to 2 hours. • 8) 70 ul of Microscint 20 scintillation fluid was added to each well of filter plates and after at least 30 minutes of incubation, radioactive counts were measured in a Perkinelmer microplate scintillation counter.

| SMILES | melting point | pIC50 [1] |
| --- | --- | --- |
| CCCNC(=O)CC(C)NC(=O)c1c[nH]c2ncc(C3CC3)nc12 (stereo not shown) [Compound I-4, 2-Cyclopropyl-5H-pyrrolo[2,3-b]pyrazine-7-carboxylic acid (1-methyl-2-propylcarbamoyl-ethyl)-amide] | 198 to 200 °C | 6.08 |
| CC(CC(=O)NC1CC1)NC(=O)c1c[nH]c2ncc(C3CC3)nc12 (stereo not shown) [Compound I-5, 2-Cyclopropyl-5H-pyrrolo[2,3-b]pyrazine-7-carboxylic acid (2-cyclopropylcarbamoyl-1-methyl-ethyl)-amide] | 236 to 238 °C | 6.01 |
| CC(C)(C(N)=O)C(NC(=O)c1c[nH]c2ncc(C3CC3)nc12)C1CC1 (stereo not shown) [Compound I-7, 2-Cyclopropyl-5H-pyrrolo[2,3-b]pyrazine-7-carboxylic acid (2-carbamoyl-1-cyclopropyl-2-methyl-propyl)-amide] | 222 to 224 °C | 7.17 |
| N#CCCN1CCC[C@@H](NC(=O)c2c[nH]c3ncc(C4CC4)nc23)C1=O [Compound I-13, 2-Cyclopropyl-5H-pyrrolo[2,3-b]pyrazine-7-carboxylic acid [(R)-1-(2-cyano-ethyl)-2-oxo-piperidin-3-yl]-amide] |  | 6.86 |
| O=C(N[C@@H]1CCCNC1=O)c1c[nH]c2ncc(C3CC3)nc12 [Compound I-11, 2-Cyclopropyl-5H-pyrrolo[2,3-b]pyrazine-7-carboxylic acid ((R)-2-oxo-piperidin-3-yl)-amide] |  | 6.50 |
| CN1CCC[C@@H](NC(=O)c2c[nH]c3ncc(C4CC4)nc23)C1=O [Compound I-12, 2-Cyclopropyl-5H-pyrrolo[2,3-b]pyrazine-7-carboxylic acid ((R)-1-methyl-2-oxo-piperidin-3-yl)-amide] |  | 6.75 |
| CC(CC(=O)NCC(F)(F)F)NC(=O)c1c[nH]c2ncc(C3CC3)nc12 (stereo not shown) [Compound I-2, 2-Cyclopropyl-5H-pyrrolo[2,3-b]pyrazine-7-carboxylic acid [1-methyl-2-(2,2,2-trifluoro-ethylcarbamoyl)-ethyl]-amide] | 230 to 232 °C | 6.70 |

The remaining lines, values ahead:

| melting point | pIC50 [1] | SMILES |
| --- | --- | --- |
|  | 7.40 | C[C@@H](NC(=O)c1c[nH]c2ncc(C3CC3)nc12)C(=O)N(C)CC#N [Compound I-8, 2-Cyclopropyl-5H-pyrrolo[2,3-b]pyrazine-7-carboxylic acid [(R)-1-(cyanomethyl-methyl-carbamoyl)-ethyl]-amide] |
|  | 5.91 | C[C@H](NC(=O)c1c[nH]c2ncc(C3CC3)nc12)C(=O)N(C)C [Compound I-9, 2-Cyclopropyl-5H-pyrrolo[2,3-b]pyrazine-7-carboxylic acid ((S)-1-dimethylcarbamoyl-ethyl)-amide] |
| 215 to 220 °C | 6.54 | NC(=O)CNC(=O)c1c[nH]c2ncc(C3CC3)nc12 [Compound I-1, 2-Cyclopropyl-5H-pyrrolo[2,3-b]pyrazine-7-carboxylic acid carbamoylmethyl-amide] |
| 182 to 184 °C | 6.04 | CCNC(=O)CC(C)NC(=O)c1c[nH]c2ncc(C3CC3)nc12 (stereo not shown) [Compound I-3, 2-Cyclopropyl-5H-pyrrolo[2,3-b]pyrazine-7-carboxylic acid (2-ethylcarbamoyl-1-methyl-ethyl)-amide] |
|  | 7.02 | CC(C)C[C@@H](NC(=O)c1c[nH]c2ncc(C3CC3)nc12)C(=O)N(C)C [Compound I-10, 2-Cyclopropyl-5H-pyrrolo[2,3-b]pyrazine-7-carboxylic acid ((R)-1-dimethylcarbamoyl-3-methyl-butyl)-amide] |
|  | 6.95 | C[C@@H](NC(=O)c1c[nH]c2ncc(C3CC3)nc12)C(=O)N(C)C [Compound I-6, 2-Cyclopropyl-5H-pyrrolo[2,3-b]pyrazine-7-carboxylic acid ((R)-1-dimethylcarbamoyl-ethyl)-amide] |
